Where two headings read alike, the source gives them in different places. Square brackets hold non-standard residues; d marks the D form. Peptide text beside a SMILES is read from it. * marks the point of attachment. X3 = O=C(CSCC(=O)*)NCCn1ccccc1=O; Aib = CC(C)(N)C(=O)O
Columns and labels:
Assay type in all cases: cell-based
GLP-1R [1] = biological target: T1, GLP-1R (Homo sapiens, UniProt P43220); test: HitHunter cAMP assay (GLP-1R); details: cAMP; for Emax: read-out: (Emax) GLP-1R
Procedure, shortened: (§1)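 Suspension cells (10,000/well) in HBSS with 10 mM HEPES, 625 μM IBMX, 0.2% BSA exposed to 22-point 2-fold agonist series in duplicate for 30 min at room temperature. cAMP measured by antibody immunocompetition with overnight development, luminescence read-out.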

GIP-R = biological target: T2, GIP-R (Homo sapiens, UniProt P48546); test: HitHunter cAMP assay (GIP-R); details: cAMP; for Emax: read-out: (Emax) GIP-R
T2 sequence (P48546 22-466): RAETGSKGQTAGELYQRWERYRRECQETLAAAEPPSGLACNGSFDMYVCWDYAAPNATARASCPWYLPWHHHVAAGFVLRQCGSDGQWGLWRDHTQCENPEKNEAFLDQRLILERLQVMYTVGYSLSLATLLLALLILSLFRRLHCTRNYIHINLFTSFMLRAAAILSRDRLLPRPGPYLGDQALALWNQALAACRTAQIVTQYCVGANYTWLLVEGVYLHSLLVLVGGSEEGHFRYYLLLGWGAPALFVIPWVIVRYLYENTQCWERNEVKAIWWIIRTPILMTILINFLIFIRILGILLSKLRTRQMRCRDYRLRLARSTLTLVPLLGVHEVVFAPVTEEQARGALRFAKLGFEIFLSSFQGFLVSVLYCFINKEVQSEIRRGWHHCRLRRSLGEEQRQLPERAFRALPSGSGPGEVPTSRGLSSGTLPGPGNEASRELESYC
Procedure, shortened: as §1

GLP-1R [2] = biological target: T1, GLP-1R; test: PathHunter β-arrestin assay
Procedure, shortened: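 Cells (5,000/well) plated overnight, then exposed to a 22-point 2-fold agonist dilution series in medium with 0.2% BSA for 90 min at 37 °C, 5% CO2. PathHunter detection reagent added; after 3 h at room temperature in the dark, luminescence read.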

[3] = Table 3, read-out: EC50 GLP-1R/nM
[4] = Table 3A, read-out: EC50 GLP-1R/nM
[5] = Table 3, read-out: EC50 GIP-R/nM
[6] = Table 3A, read-out: EC50 GIP-R/nM
[7] = PathHunter β-arrestin assay, read-out: β-arrestin activity EC50
[8] = read-out: EC50 GIP-R/nM, Table 3
[9] = read-out: EC50 GIP-R/nM, Table 3A

T1 sequence (P43220 24-463): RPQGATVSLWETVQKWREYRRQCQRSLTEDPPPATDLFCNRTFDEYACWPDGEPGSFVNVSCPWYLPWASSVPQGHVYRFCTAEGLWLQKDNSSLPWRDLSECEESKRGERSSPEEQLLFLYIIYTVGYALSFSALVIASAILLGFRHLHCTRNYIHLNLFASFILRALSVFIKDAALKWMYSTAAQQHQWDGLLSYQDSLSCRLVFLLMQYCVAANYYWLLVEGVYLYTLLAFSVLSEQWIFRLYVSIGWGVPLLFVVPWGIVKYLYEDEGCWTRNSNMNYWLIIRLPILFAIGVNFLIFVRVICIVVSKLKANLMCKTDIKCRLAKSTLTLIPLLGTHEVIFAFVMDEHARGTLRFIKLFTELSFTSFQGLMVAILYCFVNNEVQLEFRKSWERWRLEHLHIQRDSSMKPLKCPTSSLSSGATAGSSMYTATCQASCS

| SMILES | EC50 (GLP-1R [1]; EC50 GLP-1R/nM, Table 3) | EC50 (GLP-1R [1]; EC50 GLP-1R/nM, Table 3A) | Emax (GLP-1R [1]; Table 3) | Emax (GLP-1R [1]; Table 3A) | EC50 (GIP-R; EC50 GIP-R/nM, Table 3) | EC50 (GIP-R; EC50 GIP-R/nM, Table 3A) | Emax (GIP-R; Table 3) | Emax (GIP-R; Table 3A) | EC50 (GLP-1R [2]) | EC50 (GLP-1R [1]; [3]) | EC50 (GLP-1R [1]; [4]) | EC50 (GIP-R; [5]) | EC50 (GIP-R; [6]) | EC50 (GLP-1R [2]; [7]) | EC50 (GIP-R; [8]) | EC50 (GIP-R; [9]) | EC50 (GLP-1R [1]; read-out: EC50 GLP-1R/nM, Table 3) | EC50 (GLP-1R [1]; read-out: EC50 GLP-1R/nM, Table 3A) |
| --- | --- | --- | --- | --- | --- | --- | --- | --- | --- | --- | --- | --- | --- | --- | --- | --- | --- | --- |
| CC[C@H](C)[C@H](NC(=O)[C@H](CO)NC(=O)[C@H](Cc1ccc(O)cc1)NC(=O)[C@H](CC(=O)O)NC(=O)[C@H](CO)NC(=O)[C@@H](NC(=O)[C@H](Cc1ccccc1)NC(=O)[C@@H](NC(=O)CNC(=O)[C@H](CCC(=O)O)NC(=O)C(C)(C)C(=O)NCCn1ncc2ccccc2c1=O)[C@@H](C)O)[C@@H](C)O)C(=O)N[C@@H](Cc1ccc(O)cc1)C(=O)N[C@@H](CC(C)C)C(=O)N[C@@H](CC(=O)O)C(=O)N[C@@H](CCCCN)C(=O)N[C@@H](CCC(N)=O)C(=O)N[C@@H](C)C(=O)N[C@@H](C)C(=O)NC(C)(C)C(=O)N[C@@H](CCC(=O)O)C(=O)N[C@@H](Cc1ccccc1)C(=O)N[C@H](C(=O)N[C@@H](CC(N)=O)C(=O)N[C@@H](Cc1c[nH]c2ccccc12)C(=O)N[C@@H](CC(C)C)C(=O)N[C@@H](CC(C)C)C(=O)N[C@@H](C)C(=O)NCC(=O)NCC(=O)N1CCC[C@H]1C(=O)N[C@@H](CO)C(=O)N[C@@H](CO)C(=O)NCC(=O)N[C@@H](C)C(=O)N1CCC[C@H]1C(=O)N1CCC[C@H]1C(=O)N1CCC[C@H]1C(=O)N[C@@H](CO)C(=O)N[C@@H](CCCCN)C(N)=O)C(C)C [Compound 116] | < 0.1 nM | < 0.1 nM | 98% | 98% | 10 to 100 nM | 10 to 100 nM | 50% | 50% | > 1000 nM | – | – | – | – | – | – | – | – | – |
| CC[C@H](C)[C@H](NC(=O)[C@H](CO)NC(=O)[C@H](Cc1ccc(O)cc1)NC(=O)[C@H](CC(=O)O)NC(=O)[C@H](CO)NC(=O)[C@@H](NC(=O)[C@H](Cc1ccccc1)NC(=O)[C@@H](NC(=O)CNC(=O)[C@H](CCC(=O)O)NC(=O)CSCC(=O)NCCn1ccccc1=O)[C@@H](C)O)[C@@H](C)O)C(=O)N[C@@H](Cc1ccc(O)cc1)C(=O)N[C@@H](CC(C)C)C(=O)N[C@@H](CC(=O)O)C(=O)N[C@@H](CCCCN)C(=O)N[C@@H](CCC(N)=O)C(=O)N[C@@H](C)C(=O)N[C@@H](C)C(=O)NC(C)(C)C(=O)N[C@@H](CCC(=O)O)C(=O)N[C@@H](Cc1ccccc1)C(=O)N[C@H](C(=O)N[C@@H](CC(N)=O)C(=O)N[C@@H](Cc1c[nH]c2ccccc12)C(=O)N[C@@H](CC(C)C)C(=O)N[C@@H](CC(C)C)C(=O)N[C@@H](C)C(=O)NCC(=O)NCC(=O)N1CCC[C@H]1C(=O)N[C@@H](CO)C(=O)N[C@@H](CO)C(=O)NCC(=O)N[C@@H](C)C(=O)N1CCC[C@H]1C(=O)N1CCC[C@H]1C(=O)N1CCC[C@H]1C(=O)N[C@@H](CO)C(=O)N[C@@H](CCCCN)C(N)=O)[C@@H](C)CC [Compound 118] (X3-EGTFTSDYSIYLDKQAA[Aib]EFINWLLAGGPSSGAPPPSK-NH2) | – | – | 95% | 95% | – | – | 35% | 35% | – | < 0.1 nM | < 0.1 nM | 1 to 10 nM | 1 to 10 nM | > 1000 nM | – | – | – | – |
| CC[C@H](C)[C@H](NC(=O)[C@H](CO)NC(=O)[C@H](Cc1ccc(O)cc1)NC(=O)[C@H](CC(=O)O)NC(=O)[C@H](CO)NC(=O)[C@@H](NC(=O)[C@H](Cc1ccccc1)NC(=O)[C@@H](NC(=O)CNC(=O)[C@H](CCC(=O)O)NC(=O)C1(C(=O)NCCN2C(=O)CSC2=O)CCCCC1)[C@@H](C)O)[C@@H](C)O)C(=O)N[C@@H](Cc1ccc(O)cc1)C(=O)N[C@@H](CC(C)C)C(=O)N[C@@H](CC(=O)O)C(=O)N[C@@H](CCCCN)C(=O)N[C@@H](CCC(N)=O)C(=O)N[C@@H](C)C(=O)N[C@@H](C)C(=O)NC(C)(C)C(=O)N[C@@H](CCC(=O)O)C(=O)N[C@@H](Cc1ccccc1)C(=O)N[C@H](C(=O)N[C@@H](CC(N)=O)C(=O)N[C@@H](Cc1c[nH]c2ccccc12)C(=O)N[C@@H](CC(C)C)C(=O)N[C@@H](CC(C)C)C(=O)N[C@@H](C)C(=O)NCC(=O)NCC(=O)N1CCC[C@H]1C(=O)N[C@@H](CO)C(=O)N[C@@H](CO)C(=O)NCC(=O)N[C@@H](C)C(=O)N1CCC[C@H]1C(=O)N1CCC[C@H]1C(=O)N1CCC[C@H]1C(=O)N[C@@H](CO)C(=O)N[C@@H](CCCCN)C(N)=O)C(C)C [Compound 119] | – | – | 97% | 97% | – | – | 41% | 41% | – | < 0.1 nM | < 0.1 nM | 1 to 10 nM | 10 to 100 nM | < 10 nM | – | – | – | – |
| CCCCCCCCCCCCCCCC(=O)N[C@@H](CCC(=O)NCCCC[C@H](NC(=O)[C@H](CO)NC(=O)[C@@H]1CCCN1C(=O)[C@@H]1CCCN1C(=O)[C@@H]1CCCN1C(=O)[C@H](C)NC(=O)CNC(=O)[C@H](CO)NC(=O)[C@H](CO)NC(=O)[C@@H]1CCCN1C(=O)CNC(=O)CNC(=O)[C@H](C)NC(=O)[C@H](CC(C)C)NC(=O)[C@H](CC(C)C)NC(=O)[C@H](Cc1c[nH]c2ccccc12)NC(=O)[C@H](CC(N)=O)NC(=O)[C@@H](NC(=O)[C@H](Cc1ccccc1)NC(=O)[C@H](CCC(=O)O)NC(=O)C(C)(C)NC(=O)[C@H](C)NC(=O)[C@H](C)NC(=O)[C@H](CCC(N)=O)NC(=O)[C@H](CCCCN)NC(=O)[C@H](CC(=O)O)NC(=O)[C@H](CC(C)C)NC(=O)[C@H](Cc1ccc(O)cc1)NC(=O)[C@@H](NC(=O)[C@H](CO)NC(=O)[C@H](Cc1ccc(O)cc1)NC(=O)[C@H](CC(=O)O)NC(=O)[C@H](CO)NC(=O)[C@@H](NC(=O)[C@H](Cc1ccccc1)NC(=O)[C@@H](NC(=O)CNC(=O)[C@H](CCC(=O)O)NC(=O)CSCC(=O)NCCN1C(=O)CCCC1=O)[C@@H](C)O)[C@@H](C)O)[C@@H](C)CC)C(C)C)C(N)=O)C(=O)O [Compound 123] | 1 to 10 nM | 1 to 10 nM | 104% | 104% | 0.1 to 1 nM | 0.1 to 1 nM | 111% | 111% | > 1000 nM | – | – | – | – | – | – | – | – | – |
| CC[C@H](C)[C@H](NC(=O)[C@H](CO)NC(=O)[C@H](Cc1ccc(O)cc1)NC(=O)[C@H](CC(=O)O)NC(=O)[C@H](CO)NC(=O)[C@@H](NC(=O)[C@H](Cc1ccccc1)NC(=O)[C@@H](NC(=O)CNC(=O)[C@H](CCC(=O)O)NC(=O)CC(=O)NCCCN1C(=O)c2ccc(C)cc2C1=O)[C@@H](C)O)[C@@H](C)O)C(=O)N[C@@H](Cc1ccc(O)cc1)C(=O)N[C@@H](CC(C)C)C(=O)N[C@@H](CC(=O)O)C(=O)N[C@@H](CCCCN)C(=O)N[C@@H](CCC(N)=O)C(=O)N[C@@H](C)C(=O)N[C@@H](C)C(=O)NC(C)(C)C(=O)N[C@@H](CCC(=O)O)C(=O)N[C@@H](Cc1ccccc1)C(=O)N[C@H](C(=O)N[C@@H](CC(N)=O)C(=O)N[C@@H](Cc1c[nH]c2ccccc12)C(=O)N[C@@H](CC(C)C)C(=O)N[C@@H](CC(C)C)C(=O)N[C@@H](C)C(=O)NCC(=O)NCC(=O)N1CCC[C@H]1C(=O)N[C@@H](CO)C(=O)N[C@@H](CO)C(=O)NCC(=O)N[C@@H](C)C(=O)N1CCC[C@H]1C(=O)N1CCC[C@H]1C(=O)N1CCC[C@H]1C(=O)N[C@@H](CO)C(=O)N[C@@H](CCCCN)C(N)=O)C(C)C [Compound 128] | 1 to 10 nM | 1 to 10 nM | 99% | 99% | – | – | 68% | 68% | > 1000 nM | – | – | – | – | – | 1 to 100 nM | 1 to 100 nM | – | – |
| CC[C@H](C)[C@H](NC(=O)[C@H](CO)NC(=O)[C@H](Cc1ccc(O)cc1)NC(=O)[C@H](CC(=O)O)NC(=O)[C@H](CO)NC(=O)[C@@H](NC(=O)[C@H](Cc1ccccc1)NC(=O)[C@@H](NC(=O)CNC(=O)[C@H](CCC(=O)O)NC(=O)C(C)(C)C(=O)NCCCN1C(=O)c2ccc(C)cc2C1=O)[C@@H](C)O)[C@@H](C)O)C(=O)N[C@@H](Cc1ccc(O)cc1)C(=O)N[C@@H](CC(C)C)C(=O)N[C@@H](CC(=O)O)C(=O)N[C@@H](CCCCN)C(=O)N[C@@H](CCC(N)=O)C(=O)N[C@@H](C)C(=O)N[C@@H](C)C(=O)NC(C)(C)C(=O)N[C@@H](CCC(=O)O)C(=O)N[C@@H](Cc1ccccc1)C(=O)N[C@H](C(=O)N[C@@H](CC(N)=O)C(=O)N[C@@H](Cc1c[nH]c2ccccc12)C(=O)N[C@@H](CC(C)C)C(=O)N[C@@H](CC(C)C)C(=O)N[C@@H](C)C(=O)NCC(=O)NCC(=O)N1CCC[C@H]1C(=O)N[C@@H](CO)C(=O)N[C@@H](CO)C(=O)NCC(=O)N[C@@H](C)C(=O)N1CCC[C@H]1C(=O)N1CCC[C@H]1C(=O)N1CCC[C@H]1C(=O)N[C@@H](CO)C(=O)N[C@@H](CCCCN)C(N)=O)C(C)C [Compound 129] | – | – | 91 to 95% | 91 to 95% | – | – | 102 to 109% | 102 to 109% | > 1000 nM | – | – | – | – | – | 0.1 to 10 nM | 0.1 to 10 nM | 1 to 100 nM | 1 to 100 nM |

— patent US20260176320A1, “MODULATORS OF G-PROTEIN COUPLED RECEPTORS” (priority 2018, published 2026)
